Results: patent publication US7323541B2, “Polypeptide DNA thereof and use of the same” (Takeda Pharmaceutical Company Limited, priority 2001, dated 2008)
pEC50: −log10 of the molar value. Where no end group is shown, it is not given here.

Experiments:
[1] = molecular target: T1, rat TGR23-5 expressing CHO cells (Rattus norvegicus, UniProt P0C0L6); assay: Intracellular Ca ion concentration increasing activity using FLIPR; format: cell-based
T1 construct: expressed in transfected cells; host or cells: CHO dhfr- cells, pAKKO-rTGR23-5, clone No. 29
T1 sequence (P0C0L6 1-372): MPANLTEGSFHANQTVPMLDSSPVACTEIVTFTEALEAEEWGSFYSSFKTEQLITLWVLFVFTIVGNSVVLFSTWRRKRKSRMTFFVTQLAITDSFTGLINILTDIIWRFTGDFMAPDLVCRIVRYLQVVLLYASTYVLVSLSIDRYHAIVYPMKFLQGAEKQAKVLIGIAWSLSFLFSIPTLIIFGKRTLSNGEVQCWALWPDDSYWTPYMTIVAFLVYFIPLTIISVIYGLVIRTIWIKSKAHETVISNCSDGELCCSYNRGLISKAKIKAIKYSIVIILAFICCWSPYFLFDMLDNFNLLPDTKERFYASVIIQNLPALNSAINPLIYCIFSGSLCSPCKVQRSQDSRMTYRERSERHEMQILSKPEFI
Description: (§1) An enhancing activity of intracellular Ca^2+ release was assayed using FLIPR (Molecular Devices, Inc.). The CHO/TGR23-2 cells prepared in Example 1 and selected in Example 2 were plated on 96-well plate at 3×10^4 cells/well and cultured for 24 hours. A loading buffer was prepared by adding 1 vial of Fluo 3-AM to 10 ml of Hanks' solution (pH7.4) containing 2.5 mM Probenecid and 20 mM HEPES (hereafter, Hanks' solution (pH7.4) containing 2.5 mM Probenecid and 20 mM HEPES may be referred to as a washing buffer). The culture medium was discarded from the culture plate and 100 μl/well of the loading buffer were added to the cells. Then, the cells were incubated for 60 minutes in the incubator. After the loading buffer was removed from the culture plate and the cells were washed with the washing buffer, the plate was put in place of FLIPR. A sample was prepared by adding a sample buffer, which 2 mg/ml BSA and 1 mg/ml CHAPS were added to the washing buffer, to lyophilized product, stirring and treating by ultrasonication for 30 minutes, and transferred to 96-well sample plate. This sample plate was also put in place for assay. The enhancing activity of intracellular Ca^2+ release was measured as an increase of fluorescent intensity, which is raised by addition of the sample.
(§2) The rat TGR23-2 ligand (1-18) having various concentrations was administered in accordance with the method described in Example 5, to the CHO cells, in which rat TGR23-1 and rat TGR23-5 are expressed. Subsequently, the intracellular Ca ion concentration increasing activity was measured using FLIPR.

[2] = molecular target: T2, rat TGR23-1 expressing CHO cells (Rattus norvegicus, UniProt P0C0L6, DEL160-160); assay: as above; format: cell-based
T2 construct: The rat TGR23-1 expressing vector was constructed by digestion of plasmid pCR2.1-rTGR23-1 with Sal I and Spe I; expressed in transfected cells; host or cells: CHO dhfr- cells, pAKKO-rTGR23-1, clone No. 34
T2 sequence (P0C0L6 with tags, fused parts or gaps DEL160-160): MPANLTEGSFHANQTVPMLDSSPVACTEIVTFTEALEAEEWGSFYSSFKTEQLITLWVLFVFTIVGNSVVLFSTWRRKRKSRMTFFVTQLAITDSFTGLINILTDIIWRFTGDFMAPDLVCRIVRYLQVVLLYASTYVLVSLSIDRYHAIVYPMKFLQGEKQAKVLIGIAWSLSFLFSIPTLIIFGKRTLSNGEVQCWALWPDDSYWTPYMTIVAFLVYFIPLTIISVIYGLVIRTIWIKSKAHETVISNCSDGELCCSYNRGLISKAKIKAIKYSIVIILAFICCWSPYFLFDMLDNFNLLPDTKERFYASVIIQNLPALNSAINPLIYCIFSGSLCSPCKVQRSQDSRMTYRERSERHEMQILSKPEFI
Description: as §1, §2

[3] = Feeding level after administration into rat lateral ventricle; format: in vivo, Wistar rats; conditions: 10 nmol/rat, at 1.5 hours and two hours after administration, vs distilled water group, p<0.05
Description: Effects on the feeding level by administration of the human TGR23-2 ligand (1-20) into rat lateral ventricle were studied.
Rats were bred for lightning hours from eight to twenty o'clock at 25° C. Male Wistar rats at eight weeks old (260 through 280 g of weight at the time of operation) were anesthetized with 50 mg/kg of pentobarbital, i.p., and each rat was immobilized in a rat brain stereotaxic apparatus. The incisor bar was set 3.3 mm lower from the interaural line. The skull was exposed, and using a dental drill a hole was made on the bone for implantation of a guide cannula AG-8 (0.4 mm inner diameter, 0.5 mm outer diameter, EICOM Co., Ltd.). In addition, three anchor screws were buried around the hole. A stainless-steel guide cannula, AG-8 was inserted in such a manner that its tip would be situated in the upper part of the lateral ventricle. Following the atlas of Paxinos and Watson (1986), the stereotaxic coordinates were set to AP: −0.8 mm, L: 1.5 mm, and H: −4.5 mm from the bregma. The guide cannula was secured to the skull using an instant adhesive, dental cement and anchor screws. […]
For about one week after embedding of guide cannula, rats were bred to be postoperatively recuperative and be naturalized to powder feed. […] Feeding level after infusion was measured with time using Feed-Scale (Columbus) every 30 minutes until four hours after administration.

Row | Sequence | intracellular Ca ion concentration increasing activity ([1]; rat TGR23-5 expressing CHO cells) | pEC50 ([1]; rat TGR23-5 expressing cells, calculated from graph FIG. 28) | intracellular Ca ion concentration increasing activity ([2]; rat TGR23-1 expressing CHO cells) | pEC50 ([2]; rat TGR23-1 expressing cells, calculated from graph FIG. 27) | feeding level [3]
1 | SFRNGVGSGVKKTSFRRA [rat TGR23-2 ligand (1-18), Ser-Phe-Arg-Asn-Gly-Val-Gly-Ser-Gly-Val-Lys-Lys-Thr-Ser-Phe-Arg-Arg-Ala] | the intracellular Ca ion level increased depending on the concentration of this ligand | 7.85 | the intracellular Ca ion level increased depending on the concentration of this ligand | 9.72 | –
2 | SFRNGVGTGMKKTSFQRAKS [human TGR23-2 ligand (1-20)] | – | – | – | – | significant decrease of feeding level
